Laboratory results from patent US11180474B2 (BRISTOL-MYERS SQUIBB COMPANY, priority 2016, dated 2021).

Tests used:
TLR7 = test: In vivo mouse TLR7 PD model (gardiquimod challenge, plasma IL-6); details: oral
Description: (§1) In Vivo Mouse TLR7 and TLR9 PD Model:
(§2) Adult male C57BL/6 mice were used for the experiments. Mice (7 to 10 per group) were randomized into different treatment groups based on body weight. Mice from the respective treatment groups were administered orally with vehicle or test compound. Thirty min after the oral administration of vehicle or test compound, mice were challenged with intraperitoneal injection of gardiquimod for TLR7 PD model and CpG-ODN for TLR9 PD model. Ninety minutes after gardiquimod injection and 120 minutes after CpG-ODN injection, mice were bled under isoflurane anaesthesia and plasma IL-6 level was estimated by using commercially available ELISA kit (BD Biosciences). At the end of experiment, mean cytokine data was plotted and one way ANOVA with Dunnett's test was performed to calculate the significance of test compound treated group vs. vehicle control group. Percent inhibition of cytokine induction was calculated for test compound treated group vs vehicle control group.

TLR9 = test: In vivo mouse TLR9 PD model (CpG-ODN challenge, plasma IL-6); details: oral
Description: as §1, §2

COc1ccc(-c2[nH]c3ccc(C4CCN(C(=O)CN(C)C)CC4)cc3c2C(C)C)cc1OC [Example 209, 1-(4-(2-(3,4-dimethoxyphenyl)-3-isopropyl-1H-indol-5-yl)piperidin-1-yl)-2-(dimethylamino)ethan-1-one]
% inhibition of IL6 (TLR7; dose 0.001 mg/kg): 11% | % inhibition of IL6 (TLR7; dose 0.01 mg/kg): 21% | % inhibition of IL6 (TLR7; dose 0.1 mg/kg): 61% | % inhibition of IL6 (TLR7; dose 1 mg/kg): 86% | % inhibition of IL6 (TLR9; dose 1 mg/kg): 29% | % inhibition of IL6 (TLR9; dose 10 mg/kg): 37% | % inhibition of IL6 (TLR9; dose 30 mg/kg): 37% | % inhibition of IL6 (TLR9; dose 100 mg/kg): 51%
